Results reported in paper PMC5617480 (Oncotarget, 2017).

Columns and labels:
Experiment in all cases: Cytotoxicity assay (MTT assay)
Assay type in all cases: cell-based, human
[1] = system: HL-7702 normal cells; conditions: for Inhibitory rates (%): HL-7702, 20 μM
Description: (§1) To evaluate the cytotoxicity of chiral platinum(II) complexes, HeLa, BEL-7402, MGC80-3, BEL-7404, A549, Hep-G2 and HL-7702 cells (normal cells) were treated with varying concentrations of complexes 1–6 and cisplatin (positive control, cisplatin was dissolved at a concentration of 1.0 mM in 0.154 M NaCl) for 24 h and 48 h. The cell viability of each experimental group was examined by MTT assays. […] [61, 62].
(§2) Materials 100 U/mL penicillin and 100 μg/mL streptomycin in 25 cm2 culture flasks at 37 °C humidified atmosphere with Tris, RNase A, and propidium iodide (PI) were 5% CO2. All cells to be tested in the following assays have purchased from Sigma. The antibody of mutp53, a passage number of 3-6. […]
(§3) were purchased from Abcam. Unless otherwise stated, BEL-7404, A549, and Hep-G2 cancer-cell lines and HL-spectroscopic titration experiments were carried out in 7702 normal cells) per well were seeded in triplicate in TBS (10 mM pH7.35 Tris-HCl, containing 100 mM KCl). 96-well plates and incubated for 24 h at 37 °C and 5.0% The total RNA isolation kit and the two-step RT-PCR kit CO2/95.0% air. Then graded amounts of compound were purchased from TIANGEN. DNA oligomers (highly added to the wells in 10.0 μL of FBS free culture medium polymerized stored at 4 °C; long-term storage at −20 °C) and the plates were incubated in a 5% CO2 humidified are listed in Supplementary Table 1 and were obtained from atmosphere for 24 h and 48 h. Six replica wells were used Shanghai Sangon Biological Engineering Technology & as controls. Each the cells were grew for 12.0 h before Services (Shanghai, China). All tumor cell lines (HeLa, treatment to reach 70.0% confluency and 20.0 μL of tested BEL-7402, MGC80-3, BEL-7404, A549, Hep-G2 cancer- various concentrations of compounds were added to each cell lines and normal liver cell line HL-7702) were obtained well. The final concentration of the tested complexes from the Shanghai Institute for Biological Science (China). or compounds were kept at 1.25, 2.5, 5, 10, 20 μM, Stock solutions of all the compounds (2.0 mM) were made respectively. After 24 h or 48 h of culture, 0.1 mg of in DMSO, and further dilutions to working concentrations MTT (in 20 μL of PBS) was added to each well, and cells were made with corresponding buffer. were incubated at 37 °C for 6 h. The formed formazan crystals were then dissolved in 100 μL of DMSO and the Instrumentation absorbance was read by enzyme labeling instrument with Infrared spectra were obtained on a Perkine Elmer 490/630 nm double wavelength measurement. The final FT-IR Spectrometer. Elemental analyses (C, H, N) IC50 values were calculated by the Bliss method (n = 5). were carried out on a Perkin Elmer Series II CHNS/O All tests were repeated in at least three independent trials. […]

[2] = system: A549 cells; conditions: for Inhibitory rates (%): A549, 20 μM
Description: as §1, with “62]. […] Therefore, complex 6 (10 μM) was selected for cell apoptosis analysis by flow-cytometry, RT-PCR, caspase-3/9 activation assays, western blot and transfection assays in BEL-7404 cells for 24 h. In addition, this observed difference in in vitro cytotoxicity between the three complexes 4–6 could be due to the influence of the chirality of the FOA ligand [68]. […]” for “62].”
as §2, §3
(§4) 10.0 min. The cell pellet obtained was dissolved in 1.0 M
(§5) The region between 200 and 400 nm was scanned for each NaOH (1.0 mL) and diluted with 2.0% (v/v) HNO3 (5.0 sample. MTT assay was performed on M1000 microplate mL) for determining whole cell Pt content. Another set reader (Tecan Trading Co. Ltd, Shanghai, China). Cell was treated similarly, nuclear proteins, nuclear fraction, cycle and apoptosis analysis was recorded on FACS Aria cytoplasmic protein, membrane proteins and other fraction II Flow Cytometer (BD Biocsiences, San Jose, USA). were isolated as described by Chen and Schreiber et al. And the each final solution was made up to 5.0 mL
(§6) Cytotoxicity assay (MTT assay) using 2.0% (v/v) HNO3. The amount of Pt taken up by the cells was determined by ICP-MS. The instrument was […]

[3] = system: BEL-7404 cells; conditions: for Inhibitory rates (%): BEL-7404, 20 μM
Description: as §1, with “62]. […] Therefore, complex 6 (10 μM) was selected for cell apoptosis analysis by flow-cytometry, RT-PCR, caspase-3/9 activation assays, western blot and transfection assays in BEL-7404 cells for 24 h. In addition, this observed difference in in vitro cytotoxicity between the three complexes 4–6 could be due to the influence of the chirality of the FOA ligand [68]. […]” for “62].”
as §2, §3, §4, §5, §6

[4] = system: BEL-7402 cells; conditions: for Inhibitory rates (%): BEL-7402, 20 μM
Description: as §1, with “62]. […] Therefore, complex 6 (10 μM) was selected for cell apoptosis analysis by flow-cytometry, RT-PCR, caspase-3/9 activation assays, western blot and transfection assays in BEL-7404 cells for 24 h. In addition, this observed difference in in vitro cytotoxicity between the three complexes 4–6 could be due to the influence of the chirality of the FOA ligand [68]. […]” for “62].”
as §2, §3, §4, §5, §6

[5] = system: HeLa cells; conditions: for Inhibitory rates (%): 20 μM
Description: as §1, with “62]. […] Therefore, complex 6 (10 μM) was selected for cell apoptosis analysis by flow-cytometry, RT-PCR, caspase-3/9 activation assays, western blot and transfection assays in BEL-7404 cells for 24 h. In addition, this observed difference in in vitro cytotoxicity between the three complexes 4–6 could be due to the influence of the chirality of the FOA ligand [68]. […]” for “62].”
as §2, §3, §4, §5, §6

[6] = system: Hep-G2 cells; conditions: for Inhibitory rates (%): Hep-G2, 20 μM
Description: as §1, with “62]. […] Therefore, complex 6 (10 μM) was selected for cell apoptosis analysis by flow-cytometry, RT-PCR, caspase-3/9 activation assays, western blot and transfection assays in BEL-7404 cells for 24 h. In addition, this observed difference in in vitro cytotoxicity between the three complexes 4–6 could be due to the influence of the chirality of the FOA ligand [68]. […]” for “62].”
as §2, §3, §4, §5, §6

[7] = system: MGC80-3 cells; conditions: for Inhibitory rates (%): MGC80-3, 20 μM
Description: as §1, with “62]. […] Therefore, complex 6 (10 μM) was selected for cell apoptosis analysis by flow-cytometry, RT-PCR, caspase-3/9 activation assays, western blot and transfection assays in BEL-7404 cells for 24 h. In addition, this observed difference in in vitro cytotoxicity between the three complexes 4–6 could be due to the influence of the chirality of the FOA ligand [68]. […]” for “62].”
as §2, §3, §4, §5, §6

## cis-[PtCl2(R-(+)-FOA)] [complex 5]
[1]; 24 h
  selectivity index factor, IC50 (normal HL-7702 cells)/IC50 (BEL-7404 tumor cells): 3.6
  Inhibitory rates (%): 30.6 ± 2.1%
[1]; 48 h
  selectivity index factor, IC50 (normal HL-7702 cells)/IC50 (BEL-7404 tumor cells): 3.9
  Inhibitory rates (%): 37.5 ± 5.3%
[1]; HL-7702, 24 h
  IC50: 80.1 ± 1.8 µM
[1]; HL-7702, 48 h
  IC50: 55.8 ± 3.1 µM
[2]; 24 h
  Inhibitory rates (%): 28.9 ± 0.5%
[2]; 48 h
  Inhibitory rates (%): 35.9 ± 2.6%
[2]; A549, 24 h
  IC50: 56.3 ± 0.7 µM
[2]; A549, 48 h
  IC50: 17.2 ± 0.1 µM
[3]; 24 h
  Inhibitory rates (%): 46.1 ± 1.1%
[3]; 48 h
  Inhibitory rates (%): 55.9 ± 2.7%
[3]; BEL-7404, 24 h
  IC50: 22.5 ± 1.3 µM
[3]; BEL-7404, 48 h
  IC50: 14.5 ± 0.5 µM
[4]; 24 h
  Inhibitory rates (%): 35.6 ± 2.1%
[4]; 48 h
  Inhibitory rates (%): 42.1 ± 0.7%
[4]; BEL-7402, 24 h
  IC50: 42.3 ± 1.9 µM
[4]; BEL-7402, 48 h
  IC50: 38.4 ± 1.4 µM
[5]; 24 h
  Inhibitory rates (%): 8.6 ± 1.5%
  IC50: 168.6 ± 1.4 µM
[5]; 48 h
  Inhibitory rates (%): 9.9 ± 0.7%
  IC50: 64.2 ± 0.2 µM
[6]; 24 h
  Inhibitory rates (%): 16.5 ± 1.4%
[6]; 48 h
  Inhibitory rates (%): 23.3 ± 0.5%
[6]; Hep-G2, 24 h
  IC50: 93.4 ± 1.2 µM
[6]; Hep-G2, 48 h
  IC50: 35.7 ± 1.5 µM
[7]; 24 h
  Inhibitory rates (%): 11.3 ± 0.4%
[7]; 48 h
  Inhibitory rates (%): 19.8 ± 1.8%
[7]; MGC80-3, 24 h
  IC50: 135.1 ± 0.5 µM
[7]; MGC80-3, 48 h
  IC50: 37.4 ± 1.2 µM

## cis-[PtCl2(R/S-(±)-FOA)] [complex 4]
[1]; 24 h
  selectivity index factor, IC50 (normal HL-7702 cells)/IC50 (BEL-7404 tumor cells): 6.8
  Inhibitory rates (%): 28.3 ± 1.7%
[1]; 48 h
  selectivity index factor, IC50 (normal HL-7702 cells)/IC50 (BEL-7404 tumor cells): 6.7
  Inhibitory rates (%): 31.6 ± 2.4%
[1]; HL-7702, 24 h
  IC50: 85.4 ± 1.5 µM
[1]; HL-7702, 48 h
  IC50: 58.5 ± 5.5 µM
[2]; 24 h
  Inhibitory rates (%): 57.6 ± 0.6%
[2]; 48 h
  Inhibitory rates (%): 77.8 ± 0.1%
[2]; A549, 24 h
  IC50: 18.6 ± 0.5 µM
[2]; A549, 48 h
  IC50: 9.1 ± 0.6 µM
[3]; 24 h
  Inhibitory rates (%): 67.3 ± 1.3%
[3]; 48 h
  Inhibitory rates (%): 80.0 ± 4.3%
[3]; BEL-7404, 24 h
  IC50: 12.5 ± 1.1 µM
[3]; BEL-7404, 48 h
  IC50: 8.7 ± 0.1 µM
[4]; 24 h
  Inhibitory rates (%): 41.2 ± 0.6%
[4]; 48 h
  Inhibitory rates (%): 48.6 ± 1.3%
[4]; BEL-7402, 24 h
  IC50: 32.5 ± 0.5 µM
[4]; BEL-7402, 48 h
  IC50: 20.7 ± 0.9 µM
[5]; 24 h
  Inhibitory rates (%): 18.5 ± 0.7%
  IC50: 90.5 ± 0.7 µM
[5]; 48 h
  Inhibitory rates (%): 24.1 ± 2.1%
  IC50: 38.1 ± 1.5 µM
[6]; 24 h
  Inhibitory rates (%): 20.8 ± 0.3%
[6]; 48 h
  Inhibitory rates (%): 27.6 ± 1.1%
[6]; Hep-G2, 24 h
  IC50: 84.6 ± 0.4 µM
[6]; Hep-G2, 48 h
  IC50: 29.1 ± 0.8 µM
[7]; 24 h
  Inhibitory rates (%): 22.0 ± 1.9%
[7]; 48 h
  Inhibitory rates (%): 24.9 ± 1.4%
[7]; MGC80-3, 24 h
  IC50: 80.6 ± 2 µM
[7]; MGC80-3, 48 h
  IC50: 32.1 ± 1.8 µM

## cis-[PtCl2(S-(–)-FOA)] [complex 6]
[1]; 24 h
  selectivity index factor, IC50 (normal HL-7702 cells)/IC50 (BEL-7404 tumor cells): 11.8
  Inhibitory rates (%): 20.7 ± 1.6%
[1]; 48 h
  selectivity index factor, IC50 (normal HL-7702 cells)/IC50 (BEL-7404 tumor cells): 10.7
  Inhibitory rates (%): 33.9 ± 2.2%
[1]; HL-7702, 24 h
  IC50: 119 ± 1.5 µM
[1]; HL-7702, 48 h
  IC50: 84.2 ± 1.2 µM
[2]; 24 h
  Inhibitory rates (%): 65.3 ± 1.3%
[2]; 48 h
  Inhibitory rates (%): 84.7 ± 2.2%
[2]; A549, 24 h
  IC50: 15.3 ± 1.2 µM
[2]; A549, 48 h
  IC50: 8.2 ± 0.5 µM
[3]; 24 h
  Inhibitory rates (%): 70.9 ± 0.7%
[3]; 48 h
  Inhibitory rates (%): 81.3 ± 0.4%
[3]; BEL-7404, 24 h
  IC50: 10.1 ± 0.6 µM
[3]; BEL-7404, 48 h
  IC50: 7.9 ± 0.3 µM
[4]; 24 h
  Inhibitory rates (%): 50.5 ± 1.6%
[4]; 48 h
  Inhibitory rates (%): 58.4 ± 2.1%
[4]; BEL-7402, 24 h
  IC50: 20.6 ± 1.5 µM
[4]; BEL-7402, 48 h
  IC50: 15.3 ± 2.2 µM
[5]; 24 h
  Inhibitory rates (%): 21.1 ± 0.9%
  IC50: 78.2 ± 0.9 µM
[5]; 48 h
  Inhibitory rates (%): 25.1 ± 1.4%
  IC50: 31.8 ± 0.7 µM
[6]; 24 h
  Inhibitory rates (%): 30.2 ± 1.6%
[6]; 48 h
  Inhibitory rates (%): 39.3 ± 2.2%
[6]; Hep-G2, 24 h
  IC50: 50.1 ± 1.8 µM
[6]; Hep-G2, 48 h
  IC50: 17.7 ± 1.2 µM
[7]; 24 h
  Inhibitory rates (%): 25.1 ± 0.5%
[7]; 48 h
  Inhibitory rates (%): 26.5 ± 1.1%
[7]; MGC80-3, 24 h
  IC50: 72.8 ± 0.4 µM
[7]; MGC80-3, 48 h
  IC50: 31.5 ± 1.7 µM
